From US9040663B2, “Melanocortin receptor-specific peptides” (AstraZeneca AB, priority 2009, dated 2015)
Like-named read-outs stand apart in the source and are kept apart here. Positions of bridges follow the written chain, without caps; N, C: chain ends. Non-standard residues stand in square brackets, D forms with d. Residues, ends and D or L forms follow the SMILES beside them. dPhe(4-CN) = N#Cc1ccc(C[C@@H](N)C(=O)O)cc1; Orn = NCCC[C@H](N)C(=O)O

Tests used:
hMC4-R [1] = target: T1, hMC4-R (Homo sapiens (Human), UniProt P32245); test: Competitive inhibition binding assay using [I125]-NDP-α-MSH, hMC4-R; details: membranes of HEK-293 cells expressing recombinant hMC4-R, read-out: MC4-R Ki
T1 sequence (P32245 whole entry): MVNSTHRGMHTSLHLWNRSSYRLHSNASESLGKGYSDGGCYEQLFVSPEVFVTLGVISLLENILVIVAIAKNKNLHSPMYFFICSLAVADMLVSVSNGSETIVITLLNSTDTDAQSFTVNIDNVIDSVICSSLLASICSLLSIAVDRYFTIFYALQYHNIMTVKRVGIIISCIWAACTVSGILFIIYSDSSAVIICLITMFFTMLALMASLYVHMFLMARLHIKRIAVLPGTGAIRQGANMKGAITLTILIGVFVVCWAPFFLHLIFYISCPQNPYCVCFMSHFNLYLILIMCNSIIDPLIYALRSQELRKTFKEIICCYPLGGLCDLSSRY
Protocol: 7.1 Competitive Inhibition Assay using [I^125]-NDP-α-MSH.
A competitive inhibition binding assay was performed for exemplified peptides according to the invention using membrane homogenates prepared from HEK-293 cells that express recombinant hMC4-R, hMC3-R, or hMC5-R, and from B-16 mouse melanoma cells (containing endogenous MC1-R). In some instances, HEK-293 cells that express recombinant hMC1-R were employed. Assays were performed in 96 well GF/B Millipore multiscreen filtration plates (MAFB NOB10) pre-coated with 0.5% bovine serum albumin (Fraction V). Membrane homogenates were incubated with 0.2 nM (for hMC4-R) 0.4 nM (for MC3-R and MC5-R) or 0.1 nM (for mouse B16 MC1-R or hMC1-R) [I^125]-NDP-α-MSH (Perkin Elmer) and increasing concentrations of test peptides of the present invention in buffer containing 25 mM HEPES buffer (pH 7.5) with 100 mM NaCl, 2 mM CaCl2, 2 mM MgCl2, 0.3 mM 1,10-phenanthroline, and 0.2% bovine serum albumin. After incubation for 60 minutes at 37° C., the assay mixture was filtered and the membranes washed three times with ice-cold buffer. Filters were dried and counted in a gamma counter for bound radioactivity. […] Maximal specific binding (100%) was defined as the difference in radioactivity (cpm) bound to cell membranes in the absence and presence of 1 μM NDP-α-MSH. […] Each assay was conducted in triplicate and the actual mean values are described, with results less than 0% reported as 0%. Ki values for test peptides of the present invention were determined using Graph-Pad Prism® curve-fitting software.

hMC4-R [2] = target: T1, hMC4-R; test: High and low density hMC4-R functional assay (cAMP, HEK293-T-REx-MC4-R cells); type: cell-based; details: for Emax: NDP-α-MSH = 100%, read-out: Intrinsic Activity (%)
Protocol: The cells were then dispensed into 96-well plates (BD 353916) in 198 μL (about 5×10^4) cells/well and incubated for 10 minutes at 37° C. The compound to be tested was diluted with DMSO to a final concentration of 1 mM. […] 120 μL of the 1 mM compound stock was pipetted in the second column on the plate. […] All assay samples were run in duplicate (i.e. each sample was in two low dox and two high dox plates, respectively). The plates were gently shaken and incubated for 15 minutes at 37° C.

[3] = 0.1 ng/mL Doxycycline (low density hMC4-R system)
[4] = 10 ng/mL Doxycycline (high density hMC4-R system)

| Structure (SMILES) | Ki (hMC4-R [1]) | EC50 (hMC4-R [2]; [3]) | Emax (hMC4-R [2]; [3]) | EC50 (hMC4-R [2]; [4]) | Emax (hMC4-R [2]; [4]) |
| --- | --- | --- | --- | --- | --- |
| CC(=O)N[C@@H](CCCNC(=N)N)C(=O)N[C@H]1CCC(=O)NCCC[C@@H](C(N)=O)NC(=O)[C@H](Cc2c[nH]c3ccccc23)NC(=O)[C@H](CCCNC(=N)N)NC(=O)[C@@H](Cc2cccc(Cl)c2)NC(=O)[C@H](CCN)NC1=O [Example 2, Ac-Arg-cyclo(Glu-Dab-D-Phe(3-Cl)-Arg-Trp-Orn)-NH2] | 0.75 nM | 0.56 nM | 36% | 0.095 nM | 99% |
| CC(=O)N[C@@H](CCCNC(=N)N)C(=O)N[C@H]1CCC(=O)NCCC[C@@H](C(N)=O)NC(=O)[C@H](Cc2c[nH]c3ccccc23)NC(=O)[C@H](CCCNC(=N)N)NC(=O)[C@@H](Cc2ccc(C#N)cc2)NC(=O)[C@H](CCN)NC1=O [Example 7, Ac-Arg-cyclo(Glu-Dab-D-Phe(4-CN)-Arg-Trp-Orn)-NH2] | 0.833 nM | 0.3 nM | 48% | 0.135 nM | 100% |
| CC(=O)N[C@@H](CCCNC(=N)N)C(=O)N[C@H]1CCC(=O)NCCC[C@@H](C(N)=O)NC(=O)[C@H](Cc2c[nH]c3ccccc23)NC(=O)[C@H](CCCNC(=N)N)NC(=O)[C@@H](Cc2ccc(O)cc2)NC(=O)[C@H](CCN)NC1=O [Example 8, Ac-Arg-cyclo(Glu-Dab-D-Tyr-Arg-Trp-Orn)-NH2] | 75 nM | 48 nM | 71% | 0.55 nM | 87% |
| CC(=O)N[C@@H](CCCNC(=N)N)C(=O)N[C@H]1CCC(=O)NCCC[C@@H](C(N)=O)NC(=O)[C@H](Cc2c[nH]c3ccccc23)NC(=O)[C@H](CCCNC(=N)N)NC(=O)[C@@H](Cc2ccccc2F)NC(=O)[C@H](CCN)NC1=O [Example 9, Ac-Arg-cyclo(Glu-Dab-D-Phe(2-F)-Arg-Trp-Orn)-NH2] | 0.7 nM | 0.09 nM | 91% | 0.035 nM | 89% |
| CC(=O)N[C@@H](CCCNC(=N)N)C(=O)N[C@H]1CCC(=O)NCCC[C@@H](C(N)=O)NC(=O)[C@H](Cc2c[nH]c3ccccc23)NC(=O)[C@H](CCCNC(=N)N)NC(=O)[C@@H](Cc2ccccc2C#N)NC(=O)[C@H](CCN)NC1=O [Example 12, Ac-Arg-cyclo(Glu-Dab-D-Phe(2-CN)-Arg-Trp-Orn)-NH2] | 45 nM | 34 nM | 64% | 0.5 nM | 97% |
| CC(=O)N[C@@H](CCCNC(=N)N)C(=O)N[C@H]1CCC(=O)NCCC[C@@H](C(N)=O)NC(=O)[C@H](Cc2c[nH]c3ccccc23)NC(=O)[C@H](CCCNC(=N)N)NC(=O)[C@@H](Cc2cccc(C(F)(F)F)c2)NC(=O)[C@H](CCN)NC1=O [Example 14, Ac-Arg-cyclo(Glu-Dab-D-Phe(3-CF3)-Arg-Trp-Orn)-NH2] | 0.95 nM | 8 nM | 16% | 0.4 nM | 93% |
| CC(=O)N[C@@H](CCCNC(=N)N)C(=O)N[C@H]1CCC(=O)NCCC[C@@H](C(N)=O)NC(=O)[C@H](Cc2c[nH]c3ccccc23)NC(=O)[C@H](CCCNC(=N)N)NC(=O)[C@@H](Cc2ccc(C)cc2)NC(=O)[C@H](CCN)NC1=O [Example 15, Ac-Arg-cyclo(Glu-Dab-D-Phe(4-Me)-Arg-Trp-Orn)-NH2] | 0.145 nM | 0.165 nM | 16% | 0.2 nM | 90% |
| CC(=O)N[C@@H](CCCNC(=N)N)C(=O)N[C@H]1CCC(=O)NCCC[C@@H](C(N)=O)NC(=O)[C@H](Cc2c[nH]c3ccccc23)NC(=O)[C@H](CCCNC(=N)N)NC(=O)[C@@H](Cc2cc(F)cc(F)c2)NC(=O)[C@H](CCN)NC1=O [Example 17, Ac-Arg-cyclo(Glu-Dab-D-Phe(3,5-diF)-Arg-Trp-Orn)-NH2] | 2 nM | 0.95 nM | 64% | 0.12 nM | 95% |
| CC(=O)N[C@@H](CCCNC(=N)N)C(=O)N[C@H]1CCC(=O)NCCC[C@@H](C(N)=O)NC(=O)[C@H](Cc2c[nH]c3ccccc23)NC(=O)[C@H](CCCNC(=N)N)NC(=O)[C@@H](Cc2ccccc2C)NC(=O)[C@H](CCN)NC1=O [Example 18, Ac-Arg-cyclo(Glu-Dab-D-Phe(2-Me)-Arg-Trp-Orn)-NH2] | 0.5 nM | 0.14 nM | 83% | 0.085 nM | 97% |
| CC(=O)N[C@@H](CCCNC(=N)N)C(=O)N[C@H]1CCC(=O)NCCC[C@@H](C(N)=O)NC(=O)[C@H](Cc2c[nH]c3ccccc23)NC(=O)[C@H](CCCNC(=N)N)NC(=O)[C@@H](Cc2cccc(C)c2)NC(=O)[C@H](CCN)NC1=O [Example 19, Ac-Arg-cyclo(Glu-Dab-D-Phe(3-Me)-Arg-Trp-Orn)-NH2] | 0.4 nM | 0.42 nM | 35% | 0.22 nM | 97% |
| CC(=O)N[C@H](CCCNC(=N)N)C(=O)N[C@H]1CC(=O)NCCCC[C@@H](C(N)=O)NC(=O)[C@H](Cc2c[nH]c3ccccc23)NC(=O)[C@H](CCCNC(=N)N)NC(=O)[C@@H](Cc2ccc(C#N)cc2)NC(=O)[C@H](CCC(N)=O)NC1=O [Example 81, Ac-D-Arg-cyclo(Asp-Gln-D-Phe(4-CN)-Arg-Trp-Lys)-NH2] | – | 4 nM | 23% | 0.45 nM | 85% |
| CC(=O)N[C@@H](CCCNC(=N)N)C(=O)N[C@H]1CCC(=O)NCCC[C@@H](C(=O)O)NC(=O)[C@H](Cc2c[nH]c3ccccc23)NC(=O)[C@H](CCCNC(=N)N)NC(=O)[C@@H](Cc2ccc(C#N)cc2)NC(=O)[C@H](CC(N)=O)NC1=O [Example 85, Ac-Arg-cyclo(Glu-Asn-D-Phe(4-CN)-Arg-Trp-Orn)-OH] | – | 15 nM | 36% | – | 94% |

Now from value to molecule:

| Ki (hMC4-R [1]) | EC50 (hMC4-R [2]; [3]) | Emax (hMC4-R [2]; [3]) | EC50 (hMC4-R [2]; [4]) | Emax (hMC4-R [2]; [4]) | Structure (SMILES) |
| --- | --- | --- | --- | --- | --- |
| – | – | 32% | 0.09 nM | 92% | CC(=O)N[C@@H](CCCNC(=N)N)C(=O)N[C@H]1CCCNC(=O)CC[C@@H](C(N)=O)NC(=O)[C@H](Cc2c[nH]c3ccccc23)NC(=O)[C@H](CCCNC(=N)N)NC(=O)[C@@H](Cc2ccc(C#N)cc2)NC(=O)[C@H](CCC(N)=O)NC1=O [Example 94, Ac-Arg-cyclo(Orn-Gln-D-Phe(4-CN)-Arg-Trp-Glu)-NH2] |
| – | – | 49% | 0.1 nM | 100% | CC(=O)N[C@@H](CCCNC(=N)N)C(=O)N[C@H]1CCC(=O)NCCC[C@@H](C(=O)O)NC(=O)[C@H](Cc2c[nH]c3ccccc23)NC(=O)[C@H](CCCNC(=N)N)NC(=O)[C@@H](Cc2cc(F)c(F)c(F)c2)NC(=O)[C@H](CCC(N)=O)NC1=O [Example 97, Ac-Arg-cyclo(Glu-Gln-D-Phe(3,4,5-triF)-Arg-Trp-Orn)-NH2] |
| – | 0.45 nM | 47% | 0.14 nM | 100% | CC(=O)N[C@@H](CCCNC(=N)N)C(=O)N[C@H]1CCCNC(=O)CC[C@@H](C(N)=O)NC(=O)[C@H](Cc2c[nH]c3ccccc23)NC(=O)[C@H](CCCNC(=N)N)NC(=O)[C@@H](Cc2cc(F)c(F)c(F)c2)NC(=O)[C@H](CCC(N)=O)NC1=O [Example 98, Ac-Arg-cyclo(Orn-Gln-D-Phe(3,4,5-triF)-Arg-Trp-Glu)-NH2] |
| – | 18 nM | – | – | – | CC(=O)N[C@@H](CCCNC(=N)N)C(=O)N[C@H]1CCC(=O)NCCC[C@@H](C(N)=O)NC(=O)[C@H](Cc2c[nH]c3ccccc23)NC(=O)[C@H](CCCNC(=N)N)NC(=O)[C@@H](Cc2ccc(F)cc2)NC(=O)[C@@H]2CCCN2C1=O [Example 102, Ac-Arg-cyclo(Glu-Pro-D-Phe(4-F)-Arg-Trp-Orn)-OH] |
| – | – | 16% | 10 nM | 100% | CC(=O)N[C@@H](CCCNC(=N)N)C(=O)N[C@H]1CC(=O)NCCCC[C@@H](C(N)=O)NC(=O)[C@H](Cc2c[nH]c3ccccc23)NC(=O)[C@H](CCCNC(=N)N)NC(=O)[C@@H](Cc2ccccc2F)NC(=O)[C@@H]2CCCN2C1=O [Example 104, Ac-Arg-cyclo(Asp-Pro-D-Phe(2-F)-Arg-Trp-Lys)-NH2] |
| – | – | 2% | – | 69% | CC(=O)N[C@@H](CCCNC(=N)N)C(=O)N[C@H]1CCC(=O)NCCC[C@@H](C(=O)O)NC(=O)[C@H](Cc2c[nH]c3ccccc23)NC(=O)[C@H](CCCNC(=N)N)NC(=O)[C@@H](Cc2ccc(C#N)cc2)NC(=O)[C@H](CCC(=O)O)NC1=O [Example 109, Ac-Arg-cyclo(Glu-Glu-D-Phe(4-CN)-Arg-Trp-Orn)-OH] (Ac-REE[dPhe(4-CN)]RW[Orn]-OH; lactam 2-7) |
